Assay results from article PMC9501369, “Evaluation of Novel Inhibitors of Tryptophan Dioxygenases for Enzyme and Species Selectivity Using Engineered Tumour Cell Lines Expressing Either Murine or Human IDO1 or TDO2” (Pharmaceuticals, 2022).
Like-named read-outs stand apart in the source and are kept apart here.

Experiments:
human TDO2 = biological target: T1, human TDO2 (Homo sapiens, UniProt P48775); assay: GL261-hTDO2 cell-based assay (kynurenine in supernatant); details: Table 2; for IC50: GL261-hTDO2 cells; for IC50 Ratio hTDO2/hIDO1: GL261-hTDO2 IC50 / LLTC-hIDO1 IC50, ^−1 marks inverse ratio
T1 construct: host or cells: murine GL261 glioma cells
Procedure: Each compound was tested in cell-based assays using LLTC-hIDO1 and GL261-hTDO2, respectively, for their potency at inhibiting human IDO1 and human TDO2.
(§1) Transfected LLTC cells constitutively expressing human IDO1 (LLTC-hIDO1) were established as previously described, by transfecting wild-type LLTC cells with pAd/CMV/V5-DEST with cDNA for human IDO1 (Invitrogen, Carlsbad, CA, USA). LLTC-mIDO1 cells that constitutive express murine IDO1 were established by transfection of wild-type LLTC with cDNA for murine IDO1 (courtesy of Dr Benoit van den Eynde). GL261 cells were similarly transfected to produce a line constitutively expressing human IDO1 (GL261-hIDO1), and a GL261-hTDO2 line expressing the human TDO2 gene (Source BioScience, Nottingham, England). Stable transfectants were maintained in αMEM with 10% FCS and selection antibiotics (2 µM puromycin for lines transfected with human dioxygenase genes, or 5 µg/mL blastocidin for LLTC-mIDO1 cells).
(§2) For the cell-based assays with engineered TDO2-expressing lines (10^4 cells per well), the α-MEM culture media was additionally supplemented with […] L-tryptophan. In brief, cells were cultured 24 h with the test compounds, and then supernatants from each well were transferred into fresh, flat-bottomed 96-well plates, mixed with trichloroacetic acid (10% final concentration) and incubated for 20 min, at 60 °C. Plates were centrifuged and supernatants transferred and mixed 1:1 with 4-(dimethylamino)benzaldehyde and the absorbance read at 480 nm as previously described. The inhibition of cellular enzyme activity at each drug concentration was calculated as a percent of control wells with no added drug.

human IDO1 [1] = biological target: T2, human IDO1 (Homo sapiens, UniProt P14902); assay: LLTC-hIDO1 cell-based assay (kynurenine in supernatant); parameters: host or cells: murine LLTC Lewis lung carcinoma cells
Source text: as §1, §2

GL261-hIDO1 tumours [2] = assay: Growth of subcutaneous GL261-hIDO1 tumours under daily ip treatment; format: in vivo; details: daily ip 75, 100 and 150 mg/kg, C57Bl/6 mice
Procedure: C57Bl/6 mice bred at the Vernon Jansen Unit, University of Auckland were used as the hosts for the growth of GL261 and LLTC tumours. Unless stated, first-generation tumours, initiated by injecting 10^6 cells in 100 µL medium subcutaneously into the left flank of each mouse were used for experiments. […] Tumours were measured thrice weekly, and tumour volumes were calculated as 0.52a^2b, where a and b are the minor and major axes of the tumour.
C57Bl/6 mice were inoculated subcutaneously into the left flank with 10^6 GL261-hIDO1 cells and were randomised into treatment groups 6 days after inoculation when the tumours were approximately 3 × 3 mm in size. Mice with tumours were treated daily with ip injection of the inhibitor at a tolerated non-toxic dose, dissolved to the required concentration in 50 µL DMSO per mouse. Control groups received only DMSO (≤50 µL).

murine IDO1 = biological target: T3, murine IDO1 (Mus musculus, UniProt P28776); assay: LLTC-mIDO1 cell-based assay (kynurenine in supernatant)
T3 construct: expressed in transfected cells; host or cells: murine LLTC Lewis lung carcinoma cells
Source text: as §1, §2

human IDO1 [3] = biological target: T2, human IDO1; assay: cell-free recombinant hIDO1 enzymatic assay; format: biochemical; details: Figure 4, read-out: IC50 (enzyme assay)
in vivo = details: C57Bl/6, mouse, ip
GL261-hIDO1 tumours [4] = assay: K:T ratios in plasma and tumour of mice with GL261-hIDO1 tumours after single ip dose; format: in vivo, C57Bl/6 mice; details: single ip 150 mg/kg
Procedure: C57Bl/6 mice were inoculated subcutaneously with 10^6 GL261-WT or GL261-hIDO1 cells in […] PBS into the left flank. […] In brief, 100µL of each plasma sample was mixed with 100µL of potassium phosphate buffer (0.05 M, pH 6) containing 100µM of the internal standard, 3-Nitro-L-Tyrosine (Sigma-Aldred, St Louis, MO, USA). Twenty-five µL of 2 mol/L trichloroacetic acid (Merck) was added to precipitate the proteins, and the samples were then vortexed and centrifuged at 12,000× g for 6 min, at room temperature. Standard calibration curves made from serial dilution of tryptophan (Sigma) and L-kynurenine (Sigma) were prepared with the same treatment as the samples. All supernatants collected after centrifugation were transferred into micro sampling vials and analysed for kynurenine and tryptophan as previously described by HPLC (HP Agilent 1200, Agilent Technologies, Walbronn, Germany). Kynurenine and tryptophan concentrations in samples were calculated from the standard calibration curves and the kynurenine to tryptophan ratio (K:T) was calculated by dividing the concentration of kynurenine by the tryptophan concentration.

[5] = Table 2, LLTC-hIDO1 cells, read-out: IC50 (µM) LLTC-hIDO1
[6] = Table 1, LLTC-mIDO1 cells, 24 h culture with compound, read-out: IC50 (µM) LLTC-mIDO1
[7] = LLTC-hIDO1 cell assay vs recombinant hIDO1 enzymatic assay
[8] = Table 1, LLTC-hIDO1 cells, 24 h culture with compound, read-out: IC50 (µM) LLTC-hIDO1
[9] = mice with 16-day GL261-hIDO1 tumours

T3 sequence (P28776 whole entry): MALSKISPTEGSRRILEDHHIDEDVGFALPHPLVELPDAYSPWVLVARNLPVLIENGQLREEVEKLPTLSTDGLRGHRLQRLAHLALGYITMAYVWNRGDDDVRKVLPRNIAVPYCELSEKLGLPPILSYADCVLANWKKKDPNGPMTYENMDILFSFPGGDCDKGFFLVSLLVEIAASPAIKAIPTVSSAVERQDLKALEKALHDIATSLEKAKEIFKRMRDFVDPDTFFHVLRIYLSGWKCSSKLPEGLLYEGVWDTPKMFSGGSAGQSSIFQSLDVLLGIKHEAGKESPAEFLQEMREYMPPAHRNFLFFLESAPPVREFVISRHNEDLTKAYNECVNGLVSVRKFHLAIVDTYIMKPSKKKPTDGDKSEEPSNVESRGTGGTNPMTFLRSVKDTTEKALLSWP
T1 sequence (P48775 whole entry): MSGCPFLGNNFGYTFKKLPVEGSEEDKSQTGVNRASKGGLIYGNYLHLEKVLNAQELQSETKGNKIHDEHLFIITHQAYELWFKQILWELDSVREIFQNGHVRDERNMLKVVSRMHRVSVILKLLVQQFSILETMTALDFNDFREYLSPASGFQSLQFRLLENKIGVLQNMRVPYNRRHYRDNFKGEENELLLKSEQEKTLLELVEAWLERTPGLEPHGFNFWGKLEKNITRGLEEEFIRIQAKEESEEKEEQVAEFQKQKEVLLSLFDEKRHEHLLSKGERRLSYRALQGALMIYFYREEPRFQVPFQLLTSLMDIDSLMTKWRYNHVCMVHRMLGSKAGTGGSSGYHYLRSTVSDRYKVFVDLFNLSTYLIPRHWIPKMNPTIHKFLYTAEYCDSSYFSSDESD
T2 sequence (P14902 whole entry): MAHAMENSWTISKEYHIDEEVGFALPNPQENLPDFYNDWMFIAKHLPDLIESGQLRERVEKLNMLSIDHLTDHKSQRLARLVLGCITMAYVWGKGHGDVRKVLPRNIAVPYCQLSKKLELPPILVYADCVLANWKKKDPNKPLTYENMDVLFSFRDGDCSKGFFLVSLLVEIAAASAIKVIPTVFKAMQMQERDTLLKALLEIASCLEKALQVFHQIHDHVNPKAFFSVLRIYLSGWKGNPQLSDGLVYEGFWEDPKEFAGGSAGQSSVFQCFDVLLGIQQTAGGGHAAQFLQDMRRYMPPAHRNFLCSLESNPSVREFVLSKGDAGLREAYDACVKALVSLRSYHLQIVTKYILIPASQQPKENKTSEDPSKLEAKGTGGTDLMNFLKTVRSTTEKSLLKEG

Row | SMILES | IC50 (human TDO2) [µM] | IC50 (human IDO1 [1]; [5]) [µM] | IC50 (murine IDO1; [6]) [µM] | IC50 (human IDO1 [1]; [8]) [µM] | also measured
1 | Nc1noc2ncc([N+](=O)[O-])cc12 [SN37318] | 0.68 | 0.92 | – | – | –
2 | Nc1noc2nc(-c3ccccc3)ccc12 [SN36796] | 37 | 4.38 | – | – | IC50 Ratio hTDO2/hIDO1 (human TDO2): 8
3 | Cc1nc2onc(N)c2c(C)c1Cl [Compound W-0019482] | 15.2 | 0.09 | 0.01 | 0.08 | growth of subcutaneous GL261-hIDO1 tumours (GL261-hIDO1 tumours [2]): delayed the growth; IC50 Ratio hTDO2/hIDO1 (human TDO2): 169; IC50 (human IDO1 [1]; Figure 4, LLTC-hIDO1 cell-based assay, read-out: IC50 (cell assay)): 0.0661 µM; fold more potent in the cell-based assay compared to activity against the enzyme (human IDO1 [1]; [7]): 30 fold; IC50 (human IDO1 [3]): 1.85 µM; MTD (in vivo): 150 mg/kg; K:T ratio in the tumour, returned to % of that in mice without treatment (GL261-hIDO1 tumours [4]; GL261-hIDO1 tumours, time point not given): approximately 50%; K:T ratio in plasma (GL261-hIDO1 tumours [4]; [9]): reduced within an hour; K:T ratio in tumour (GL261-hIDO1 tumours [4]; [9]): reduced within an hour
4 | NC(=O)SCC(=O)Nc1ccc(F)cc1 [Compound W-0013201] | – | – | 20 | 20.1 | –
5 | Nc1noc2ncc(Br)cc12 [SN36458] | 0.08 | 0.66 | – | – | –
6 | N#Cc1c(NC(=O)c2ccccc2)sc(N)c1-c1cccs1 [Compound W-0003891] | – | – | 22.5 | 2.56 | –
7 | Nc1noc2ncncc12 [SN36704] | 1.07 | 8.67 | – | – | –
8 | O=C(O)c1coc2c1C(=NNc1ccccc1)CCC2 [Compound W-0011387] | – | – | 1.32 | 3.19 | –
9 | COc1ccc2c(N)noc2n1 [SN37057] | 10.7 | 8.88 | – | – | IC50 Ratio hTDO2/hIDO1 (human TDO2): 1.2
10 | Nc1noc2ncc(Cl)cc12 [SN36499] | 0.11 | 0.7 | – | – | –
11 | Nc1noc2nc3ccccc3cc12 [SN36500] | 1.58 | 2.11 | – | – | –
12 | C/C(=N\Nc1ccc(C)c(Cl)c1)c1ccncc1 [Compound W-0079341] | – | – | 10.3 | 17.1 | –
13 | Cc1cc(Cl)nc2onc(N)c12 [SN37313] | 4.14 | 0.06 | – | – | IC50 Ratio hTDO2/hIDO1 (human TDO2): 67
14 | Nc1noc2ncc(I)cc12 [SN36896] | 0.11 | 0.64 | – | – | –
15 | COc1cc(/C(C)=N/Nc2ccc(Cl)c(Cl)c2)cc(OC)c1OC [Compound W-0079409] | – | – | 16 | 6.74 | –
16 | C/C(=N\Nc1ccc(F)cc1F)c1cccs1 [Compound W-0079326] | – | – | 13.1 | 10.1 | –
17 | C/C(=N\Nc1ccc(F)cc1F)c1ccc(N2CCOCC2)cc1 [Compound W-0079400] | – | – | 12.9 | 20.8 | –
18 | Cc1ccc(C)c(C2=Nn3c(COc4ccccc4F)nnc3SC2C)c1 (stereo not drawn) [Compound W-0080549] | – | – | 70.7 | 31.6 | –
19 | Fc1ccc(N/N=C/c2sc(N3CCOCC3)nc2-c2ccccc2)cc1 [Compound W-0079497] | – | – | 3.03 | 3.45 | –
20 | CC1=C/C(=N\Nc2ccccc2Cl)CC1 [Compound W-0079433] | – | – | 13.3 | 5.33 | –
21 | Fc1ccc(N/N=C2/CCCc3ccccc32)c(F)c1 [Compound W-0125931] | – | – | 5.83 | 6.04 | –
22 | c1ccc2c(c1)Nc1ccccc1O2 [Compound W-0020227] | – | – | – | – | IC50 (murine IDO1): 3.1 µM; IC50 (human IDO1 [1]): 1.52 µM
23 | Cc1nc2onc(NC(=O)Nc3ccccc3)c2c(C)c1Cl [SN37705] | 175 | 2.06 | – | – | IC50 Ratio hTDO2/hIDO1 (human TDO2): 85
24 | Nc1nonc1/C(=N\O)Nc1ccc(F)c(Cl)c1 [INCB14934, reference compound] | 6.08 | – | – | – | IC50 (murine IDO1): 0.12 µM; titration curve in the cell-assay compared to that in the enzymatic assay (human IDO1 [1]; [7]): very similar
25 | Nc1noc2nc(C(F)(F)F)ccc12 [SN37159] | 1.81 | 1.14 | – | – | IC50 Ratio hTDO2/hIDO1 (human TDO2): 1.6
26 | CC(C)N1CCC(=NNc2ccc(Cl)c(Cl)c2)CC1 [Compound W-0079407] | – | – | 1.87 | 3.39 | –
27 | C/C(=N\Nc1ccc(F)cc1F)c1cc2ccccc2o1 [Compound W-0079399] | – | – | 25 | 41.2 | –
28 | Cc1ccc(N/N=C2/CCCNC2=O)cc1 [Compound W-0011320] | – | – | 11.3 | 17.9 | –
29 | Cc1nc2onc(N)c2c(C)c1Br [SN36494] | 14.1 | 0.3 | – | – | IC50 Ratio hTDO2/hIDO1 (human TDO2): 47
30 | CCn1cc(-c2c(N)sc(NC(=O)c3ccccc3)c2C#N)c(C)n1 [Compound W-0020339] | – | – | 50.5 | 11.6 | –
